Where a name gives a salt, the structure may show the parent alone.
Assays:
Assay type in all cases: biochemical, Wistar rat
[1] = biological target: T1, ^3 H-dopamine uptake in striatal synaptosomes (Rattus norvegicus, UniProt P23977); assay: In vitro inhibition of 3H-dopamine (3H-DA) uptake in striatal synaptosomes; details: 3H-DA 1 nM, 25 min at 37° C.
T1 construct: Corpi striati from male Wistar rats (150-200 g) are homogenized; from tissue; host or cells: striatum (corpus striatum) of male Wistar rats, P2 synaptosomal pellet
T1 sequence (P23977 whole entry): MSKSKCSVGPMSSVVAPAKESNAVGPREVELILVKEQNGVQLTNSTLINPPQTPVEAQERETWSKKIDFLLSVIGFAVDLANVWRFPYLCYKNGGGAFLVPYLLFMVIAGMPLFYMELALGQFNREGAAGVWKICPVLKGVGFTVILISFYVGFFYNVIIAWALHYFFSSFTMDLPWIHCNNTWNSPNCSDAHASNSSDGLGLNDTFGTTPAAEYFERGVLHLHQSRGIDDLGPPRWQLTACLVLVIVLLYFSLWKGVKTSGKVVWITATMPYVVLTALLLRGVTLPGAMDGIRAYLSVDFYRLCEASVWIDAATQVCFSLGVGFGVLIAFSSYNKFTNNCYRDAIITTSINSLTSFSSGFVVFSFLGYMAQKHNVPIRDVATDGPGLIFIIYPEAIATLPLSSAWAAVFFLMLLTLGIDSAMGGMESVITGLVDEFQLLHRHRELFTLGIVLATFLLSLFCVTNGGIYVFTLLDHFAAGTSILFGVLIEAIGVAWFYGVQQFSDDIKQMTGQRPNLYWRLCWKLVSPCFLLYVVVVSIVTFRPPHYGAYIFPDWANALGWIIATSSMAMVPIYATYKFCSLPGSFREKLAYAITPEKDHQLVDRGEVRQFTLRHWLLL
Description: (§1) The compounds of the invention have been tested for their ability to inhibit reuptake of dopamine(DA) noradrenaline(NA) and serotonine(5-HT) in synaptosomes.
(§2) Specific neurotransmitter transporters/uptake sites on nerve terminals presumably function to terminate neuronal signaling by removing the neurotransmitters dopamine, noradrenaline and serotonine, respectively, from the synaptic cleft. The activity of the transporter integral proteins can be measured in vitro by synaptosomal uptake of ^3 H-dopamine, ^3 H-noradrenaline and ^3 H-serotonine, respectively.
In Vitro Inhibition of ^3 H-dopamine (^3 H-DA) Uptake in Striatal Synaptosomes
(§3) Tissue preparations: Preparations are performed at 0-4° C. unless otherwise indicated. Corpi striati from male Wistar rats (150-200 g) are homogenized for 5-10 sec in 100 volumes of ice-cold 0.32M sucrose containing 1 mM pargyline using an Ultra-Turrax homogenizer. Monoamine oxidase activity will be inhibited in the presence of pargyline. The homogenate is centrifuged at 1000×g for 10 min. The resulting supernatant is then centrifuged at 27,000×g for 50 min and the supernatant is discarded. The pellet (P2) is resuspended in oxygenated (equilibrated with an atmosphere of 96% O2 : 4% CO2 for at least 30 min) Krebs-Ringer incubation buffer (8000 ml per g of original tissue) at pH 7.2 containing 122 mM NaCl, 0.16 mM EDTA, 4.8 mM KCl, 12.7 mM Na2 HPO4, 3.0 mM NaH2 PO4, 1.2 mM MgSO4, 1 mM CaCl2, 10 mM glucose and 1 mM ascorbic acid.
(§4) Assay: Aliquots of 4.0 ml tissue suspension are added to 100 μl of test solution and 100 μl of ^3 H-DA (1 nM, final concentration), mixed and incubated for 25 min at 37° C. Non-specific uptake is determined using benztropine (10 μM, final concentration). After incubation the samples are poured directly onto Whatman GF/C glass fibre filters under suction. The filters are then washed three times with 5 ml of ice-cold 0.9% (w/v) NaCl solution. The amount of radioactivity on the filters is determined by conventional liquid scintillation counting. Specific uptake is calculated as the difference between total uptake and non-specific uptake.
The test value is given as IC50 (the concentration (μM) of the test substance which inhibits the specific binding of ^3 H-DA by 50%).

[2] = biological target: T2, ^3 H-5-hydroxytryptamine (serotonin) uptake in cortical synaptosomes (Rattus norvegicus, UniProt P31652); assay: In vitro inhibition of 3H-5-hydroxytryptamine (3H-5-HT, serotonin) uptake in cortical synaptosomes; details: 3H-5-HT 1 nM, 30 min at 37° C.
T2 construct: Cerebral cortices from male Wistar rats (150-200 g) are homogenized; from tissue; host or cells: cerebral cortex of male Wistar rats, P2 synaptosomal pellet
T2 sequence (P31652 whole entry): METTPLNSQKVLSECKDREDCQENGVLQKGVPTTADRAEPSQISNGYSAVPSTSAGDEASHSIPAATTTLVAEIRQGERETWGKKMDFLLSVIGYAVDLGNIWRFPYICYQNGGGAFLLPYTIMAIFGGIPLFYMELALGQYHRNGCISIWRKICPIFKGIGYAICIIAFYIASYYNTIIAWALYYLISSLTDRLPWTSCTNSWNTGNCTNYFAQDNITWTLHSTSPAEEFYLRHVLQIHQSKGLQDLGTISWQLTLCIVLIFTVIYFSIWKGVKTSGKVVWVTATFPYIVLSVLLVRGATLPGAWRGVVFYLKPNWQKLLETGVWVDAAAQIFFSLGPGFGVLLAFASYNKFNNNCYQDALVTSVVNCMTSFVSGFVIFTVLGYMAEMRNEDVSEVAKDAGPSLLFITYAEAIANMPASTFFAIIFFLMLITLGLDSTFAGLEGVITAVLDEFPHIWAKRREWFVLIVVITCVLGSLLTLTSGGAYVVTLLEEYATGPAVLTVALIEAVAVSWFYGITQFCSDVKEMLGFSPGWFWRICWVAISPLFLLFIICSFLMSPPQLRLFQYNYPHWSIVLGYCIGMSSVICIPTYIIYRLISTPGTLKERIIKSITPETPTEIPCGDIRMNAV
Description: as §1, §2
In Vitro Inhibition of ^3 H-5-hydroxytryptamine (^3 H-5-HT, Serotonin) Uptake in Cortical Synaptosomes
as §3, with “preparation:” for “preparations:”, “Cerebral cortices” for “Corpi striati”, “(1000” for “(8000”
as §4, with “H-5-HT” for “H-DA”, “30” for “25”, “citalopram (1” for “benztropine (10”
The test value is given as IC50 (the concentration (μM) of the test substance which inhibits the specific binding of ^3 H-5-HT by 50%).

[3] = biological target: T3, ^3 H-noradrenaline uptake in hippocampal synaptosomes (Rattus norvegicus, UniProt Q63380); assay: In vitro inhibition of 3H-noradrenaline (3H-NA) uptake in hippocampal synaptosomes; details: 3H-NA 1 nM, 90 min at 37° C.
T3 construct: Hippocampi from male Wistar rats (150-200 g) are homogenized; from tissue; host or cells: hippocampus of male Wistar rats, P2 synaptosomal pellet
T3 sequence (Q63380 1-617): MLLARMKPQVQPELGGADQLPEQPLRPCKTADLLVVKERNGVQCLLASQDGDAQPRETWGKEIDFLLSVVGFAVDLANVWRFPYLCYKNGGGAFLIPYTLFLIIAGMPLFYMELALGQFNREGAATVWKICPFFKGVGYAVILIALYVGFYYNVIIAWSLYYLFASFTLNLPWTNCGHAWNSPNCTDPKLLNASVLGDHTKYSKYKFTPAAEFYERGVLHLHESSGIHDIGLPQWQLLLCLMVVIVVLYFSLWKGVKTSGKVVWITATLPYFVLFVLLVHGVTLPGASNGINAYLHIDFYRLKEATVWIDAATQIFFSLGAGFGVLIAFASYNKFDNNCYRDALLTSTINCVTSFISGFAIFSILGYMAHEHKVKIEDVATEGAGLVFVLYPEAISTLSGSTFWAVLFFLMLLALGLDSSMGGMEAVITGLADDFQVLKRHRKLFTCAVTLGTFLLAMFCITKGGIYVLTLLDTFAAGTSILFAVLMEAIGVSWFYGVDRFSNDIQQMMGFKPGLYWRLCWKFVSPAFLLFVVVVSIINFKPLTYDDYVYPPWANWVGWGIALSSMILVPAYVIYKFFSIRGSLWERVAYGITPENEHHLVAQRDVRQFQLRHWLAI
Description: as §1, §2
In Vitro Inhibition of ^3 H-noradrenaline (^3 H-NA) Uptake in Hippocampal Synaptosomes
as §3, with “Tissue preparation:” for “Tissue preparations:”, “indicated. Hippocampi” for “indicated. Corpi striati”, “buffer (2000” for “buffer (8000”, “MgSO4, 0.97” for “MgSO4, 1”
as §4, with “H-NA” for “H-DA”, “90” for “25”, “desipramine (1” for “benztropine (10”
The test value is given as IC50 (the concentration (μM) of the test substance which inhibits the specific binding of ^3 H-NA by 50%).

For `OC1CCN2[C@H]3CC[C@@H]2[C@@H]1[C@@H](c1ccc(Cl)c(Cl)c1)C3` (stereo partly drawn) [(1S,2S,4S,7R)-2-(3,4-Dichlorophenyl)-8-azatricyclo[5.4.0.0^4,8]undecan-11-ol], the IC50 [1] was 75 nM, the IC50 [2] was 2.8 nM and the IC50 [3] was 4.1 nM.
`CON=C1CCN2[C@H]3CC[C@@H]2[C@@H]1[C@@H](c1ccc(Cl)c(Cl)c1)C3` [(1S,2S,4S,7R)-2-(3,4-Dichlorophenyl)-8-azatricyclo[5.4.0.0^4,8]undecan-11-one O-methyl-oxime] showed an IC50 [1] of 12 nM, an IC50 [2] of 3.3 nM and an IC50 [3] of 2 nM.
Work on `O=C1CCN2[C@H]3CC[C@@H]2[C@@H]1[C@@H](c1ccc(Cl)c(Cl)c1)C3` [(1S,2S,4S,7R)-2-(3,4-Dichlorophenyl)-8-azatricyclo[5.4.0.0^4,8]undecan-11-one] yielded an IC50 [1] of 180 nM, an IC50 [2] of 7.5 nM and an IC50 [3] of 35 nM.
`COC1CN2[C@H]3CC[C@@H]2[C@@H]1[C@@H](c1ccc(Cl)c(Cl)c1)C3` (stereo partly drawn) [(1S,3S,4S,8R)-3-(3 ,4-Dichlorophenyl)-5-methoxy-7-azatricyclo[5.3.0.0^4,8]decane] gave an IC50 [1] of 22 nM, an IC50 [2] of 0.1 nM and an IC50 [3] of 1.4 nM.
`CC(=O)OC1CN2[C@H]3CC[C@@H]2[C@@H]1[C@@H](c1ccc(Cl)c(Cl)c1)C3` (stereo partly drawn) [(1S,3S,4S,8R)-3-(3,4-Dichlorophenyl)-7-azatricyclo[5.3.0.0^4,8]dec-5-yl acetate fumarate] showed an IC50 [1] of 210 nM, an IC50 [2] of 7.5 nM and an IC50 [3] of 6.1 nM.
`OC1CN2[C@H]3CC[C@@H]2[C@@H]1[C@@H](c1ccc(Cl)c(Cl)c1)C3` (stereo partly drawn) [(1S,3S,4S,8R)-3-(3,4-Dichlorophenyl)-7-azatricyclo[5.3.0.0^4,8]decan-5-ol] gave an IC50 [1] of 250 nM, an IC50 [2] of 1.8 nM and an IC50 [3] of 7.4 nM.
In the case of `CON=C1CN2[C@H]3CC[C@@H]2[C@@H]1[C@@H](c1ccc(Cl)c(Cl)c1)C3` [(1S,3S,4S,8R)-3-(3,4-Dichlorophenyl)-7-azatricyclo[5.3.0.0^4,8]decan-5-one O-methyl-oxime], the IC50 [1] is reported as 16 nM, the IC50 [2] is reported as 3.2 nM and the IC50 [3] is reported as 0.9 nM.
With `O=C1CN2[C@H]3CC[C@@H]2[C@@H]1[C@@H](c1ccc(Cl)c(Cl)c1)C3` [(1S,3S,4S,8R)-3-(3,4-Dichlorophenyl)-7-azatricyclo[5.3.0.0^4,8]decan-5-one] the IC50 [1] was 120 nM, the IC50 [2] was 2.6 nM and the IC50 [3] was 5.2 nM.
